From PubChem BioAssay (NCI)
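Method: 48-hour compound exposure of cells in 96-well plates, five concentrations, linear interpolation of endpoints. GI50 = concentration required for 50% inhibition of growth. The concentration for full growth arrest is given as TGI.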

Experiments:
Assay in all cases: DTP human tumour cell line panel, 48 h
786-0 renal = test system: 786-0 renal
A498 renal = test system: A498 renal
A549 NSCLC = test system: A549 NSCLC
ACHN renal = test system: ACHN renal
BT-549 breast = test system: BT-549 breast
CAKI-1 renal = test system: CAKI-1 renal
CCRF-CEM leukemia = test system: CCRF-CEM leukemia
COLO 205 colon = test system: COLO 205 colon
DU-145 prostate = test system: DU-145 prostate
EKVX NSCLC = test system: EKVX NSCLC
HCC-2998 colon = test system: HCC-2998 colon
HCT-116 colon = test system: HCT-116 colon
HCT-15 colon = test system: HCT-15 colon
HL-60(TB) leukemia = test system: HL-60(TB) leukemia
HOP-62 NSCLC = test system: HOP-62 NSCLC
HOP-92 NSCLC = test system: HOP-92 NSCLC
HS 578T breast = test system: HS 578T breast
HT29 colon = test system: HT29 colon
IGROV1 ovarian = test system: IGROV1 ovarian
K-562 leukemia = test system: K-562 leukemia
KM12 colon = test system: KM12 colon
LOX IMVI melanoma = test system: LOX IMVI melanoma
M14 melanoma = test system: M14 melanoma
MALME-3M melanoma = test system: MALME-3M melanoma
MCF7 breast = test system: MCF7 breast
MDA-MB-231 breast = test system: MDA-MB-231 breast
MDA-MB-435 = test system: MDA-MB-435
MDA-MB-468 breast = test system: MDA-MB-468 breast
MOLT-4 leukemia = test system: MOLT-4 leukemia
NCI-H226 lung = test system: NCI-H226 lung
NCI-H23 lung = test system: NCI-H23 lung
NCI-H460 lung = test system: NCI-H460 lung
NCI-H522 lung = test system: NCI-H522 lung
NCI/ADR-RES ovarian = test system: NCI/ADR-RES ovarian
OVCAR-3 ovarian = test system: OVCAR-3 ovarian
OVCAR-4 ovarian = test system: OVCAR-4 ovarian
OVCAR-5 ovarian = test system: OVCAR-5 ovarian
OVCAR-8 ovarian = test system: OVCAR-8 ovarian
PC-3 prostate = test system: PC-3 prostate
RPMI-8226 leukemia = test system: RPMI-8226 leukemia
RXF 393 renal = test system: RXF 393 renal
SF-268 CNS = test system: SF-268 CNS
SF-295 CNS = test system: SF-295 CNS
SF-539 CNS = test system: SF-539 CNS
SK-MEL-2 melanoma = test system: SK-MEL-2 melanoma
SK-MEL-28 melanoma = test system: SK-MEL-28 melanoma
SK-MEL-5 melanoma = test system: SK-MEL-5 melanoma
SK-OV-3 ovarian = test system: SK-OV-3 ovarian
SN12C renal = test system: SN12C renal
SNB-19 CNS = test system: SNB-19 CNS
SNB-75 CNS = test system: SNB-75 CNS
SR leukemia = test system: SR leukemia
SW-620 colon = test system: SW-620 colon
T-47D breast = test system: T-47D breast
TK-10 renal = test system: TK-10 renal
U251 CNS = test system: U251 CNS
UACC-257 melanoma = test system: UACC-257 melanoma
UACC-62 melanoma = test system: UACC-62 melanoma
UO-31 renal = test system: UO-31 renal

SMILES: COC(=O)c1c(C(=O)OC)c2ccc3c4ccccc4ccc3n2c1C(=O)C(C)Br (stereo not drawn)
- GI50 (786-0 renal): 21.1 µM
- TGI (786-0 renal): > 100 µM
- GI50 (A498 renal): 88.1 µM
- TGI (A498 renal): > 100 µM
- GI50 (A549 NSCLC): 42.2 µM
- TGI (A549 NSCLC): > 100 µM
- GI50 (ACHN renal): 22.2 µM
- TGI (ACHN renal): > 100 µM
- GI50 (BT-549 breast): 6.18 µM
- TGI (BT-549 breast): 40.2 µM
- GI50 (CAKI-1 renal): 21.2 µM
- TGI (CAKI-1 renal): > 100 µM
- GI50 (CCRF-CEM leukemia): 3.92 µM
- TGI (CCRF-CEM leukemia): > 100 µM
- GI50 (COLO 205 colon): 38.8 µM
- TGI (COLO 205 colon): > 100 µM
- GI50 (DU-145 prostate): > 100 µM
- TGI (DU-145 prostate): > 100 µM
- GI50 (EKVX NSCLC): 42.4 µM
- TGI (EKVX NSCLC): > 100 µM
- GI50 (HCC-2998 colon): 39.9 µM
- TGI (HCC-2998 colon): > 100 µM
- GI50 (HCT-116 colon): 11 µM
- TGI (HCT-116 colon): > 100 µM
- GI50 (HCT-15 colon): 6.17 µM
- TGI (HCT-15 colon): 30.3 µM
- GI50 (HL-60(TB) leukemia): 5.39 µM
- TGI (HL-60(TB) leukemia): > 100 µM
- GI50 (HOP-62 NSCLC): 33.1 µM
- TGI (HOP-62 NSCLC): > 100 µM
- GI50 (HOP-92 NSCLC): 15.2 µM
- TGI (HOP-92 NSCLC): > 100 µM
- GI50 (HS 578T breast): 18.8 µM
- TGI (HS 578T breast): 92.7 µM
- GI50 (HT29 colon): 20.6 µM
- TGI (HT29 colon): > 100 µM
- GI50 (IGROV1 ovarian): 33.2 µM
- TGI (IGROV1 ovarian): > 100 µM
- GI50 (K-562 leukemia): 6.48 µM
- TGI (K-562 leukemia): > 100 µM
- GI50 (KM12 colon): > 100 µM
- TGI (KM12 colon): > 100 µM
- GI50 (LOX IMVI melanoma): 4.35 µM
- TGI (LOX IMVI melanoma): 23.7 µM
- GI50 (M14 melanoma): 31.3 µM
- TGI (M14 melanoma): > 100 µM
- GI50 (MALME-3M melanoma): 6.1 µM
- TGI (MALME-3M melanoma): 43 µM
- GI50 (MCF7 breast): 4.58 µM
- TGI (MCF7 breast): > 100 µM
- GI50 (MDA-MB-231 breast): 4.72 µM
- TGI (MDA-MB-231 breast): 35.8 µM
- GI50 (MDA-MB-435): 16.1 µM
- TGI (MDA-MB-435): > 100 µM
- GI50 (MDA-MB-468 breast): 13.2 µM
- TGI (MDA-MB-468 breast): 52.4 µM
- GI50 (MOLT-4 leukemia): 3.3 µM
- TGI (MOLT-4 leukemia): > 100 µM
- GI50 (NCI-H226 lung): 25.6 µM
- TGI (NCI-H226 lung): > 100 µM
- GI50 (NCI-H23 lung): 12.9 µM
- TGI (NCI-H23 lung): > 100 µM
- GI50 (NCI-H460 lung): 17.8 µM
- TGI (NCI-H460 lung): > 100 µM
- GI50 (NCI-H522 lung): 3.07 µM
- TGI (NCI-H522 lung): 15.2 µM
- GI50 (NCI/ADR-RES ovarian): 17.7 µM
- TGI (NCI/ADR-RES ovarian): > 100 µM
- GI50 (OVCAR-3 ovarian): 16.9 µM
- TGI (OVCAR-3 ovarian): > 100 µM
- GI50 (OVCAR-4 ovarian): 25.6 µM
- TGI (OVCAR-4 ovarian): > 100 µM
- GI50 (OVCAR-5 ovarian): 22.5 µM
- TGI (OVCAR-5 ovarian): > 100 µM
- GI50 (OVCAR-8 ovarian): 14.9 µM
- TGI (OVCAR-8 ovarian): > 100 µM
- GI50 (PC-3 prostate): 17.8 µM
- TGI (PC-3 prostate): > 100 µM
- GI50 (RPMI-8226 leukemia): 7.43 µM
- TGI (RPMI-8226 leukemia): 48.1 µM
- GI50 (RXF 393 renal): 2.79 µM
- TGI (RXF 393 renal): 36.7 µM
- GI50 (SF-268 CNS): 34.4 µM
- TGI (SF-268 CNS): > 100 µM
- GI50 (SF-295 CNS): 28.3 µM
- TGI (SF-295 CNS): > 100 µM
- GI50 (SF-539 CNS): 10.9 µM
- TGI (SF-539 CNS): 25.6 µM
- GI50 (SK-MEL-2 melanoma): 17.9 µM
- TGI (SK-MEL-2 melanoma): 94.1 µM
- GI50 (SK-MEL-28 melanoma): 25.7 µM
- TGI (SK-MEL-28 melanoma): > 100 µM
- GI50 (SK-MEL-5 melanoma): 13 µM
- TGI (SK-MEL-5 melanoma): 46.8 µM
- GI50 (SK-OV-3 ovarian): > 100 µM
- TGI (SK-OV-3 ovarian): > 100 µM
- GI50 (SN12C renal): 17.2 µM
- TGI (SN12C renal): > 100 µM
- GI50 (SNB-19 CNS): 51.5 µM
- TGI (SNB-19 CNS): > 100 µM
- GI50 (SNB-75 CNS): 24.7 µM
- TGI (SNB-75 CNS): > 100 µM
- GI50 (SR leukemia): 5.87 µM
- TGI (SR leukemia): > 100 µM
- GI50 (SW-620 colon): 7.26 µM
- TGI (SW-620 colon): 58.3 µM
- GI50 (T-47D breast): 11.5 µM
- TGI (T-47D breast): > 100 µM
- GI50 (TK-10 renal): 76.3 µM
- TGI (TK-10 renal): > 100 µM
- GI50 (U251 CNS): 18.3 µM
- TGI (U251 CNS): > 100 µM
- GI50 (UACC-257 melanoma): 44.2 µM
- TGI (UACC-257 melanoma): > 100 µM
- GI50 (UACC-62 melanoma): 11.9 µM
- TGI (UACC-62 melanoma): > 100 µM
- GI50 (UO-31 renal): 24.9 µM
- TGI (UO-31 renal): > 100 µM
